1 molecule from patent publication US20200375929A1, “METHODS AND COMPOSITIONS FOR THE TREATMENT OF DISEASES ASSOCIATED WITH CANCER, INFLAMMATION, OR IMMUNE RESPONSE” (Washington University, priority 2017, published 2020) can be followed below.

Entries after “also recorded” stand apart in the source; their conditions may differ.

In one assay the test system is BMDMs / BV2 cells. The experiment in a line: Intracellular ROS by flow cytometry. The format is cell-based, mouse. The note with it: DI 250 μM. On the procedure:
For ROS measurements, cells were treated with DI (250 μM), loaded with 10 μM CM-H2DCFDA (Invitrogen) at RT for 30 min in Hank's balanced salt solution (HBSS). After incubation, cell were rinsed with warm HBSS, harvested and directly analyzed. Mean fluorescent intensity (MFI) of living cells is shown. For Nfkbiz 3′UTR reporter analysis GFP signal was determined in live cells. For analysis of cell viability cells were stained with propidium iodide (1 μg/mL) and percentage of negative cells was plotted. Cells were acquired on CantoII or LSRII flow cytometers (Becton Dickinson), and data were analyzed with FlowJo v.9.5.2 software (Tree Star). For gating strategy see e.g., FIG. 25.
Background: A flow cytometer gives signals particle by particle.

Assay [1] deals with imiquimod-induced psoriasis-like skin inflammation. Briefly: IMQ-induced psoriasis mouse model. The note with it: DI daily i.p. It counts as in vivo. Here is the method:
RNA from cultured cells was isolated using a Total RNA I kit (OMEGA). RNA from mouse ear skin was extracted using RNAeasy mini kit (Qiagen) after tissue disruption with sterile zirconium beads on a MagNA Lyser (Roche). Isolated RNA was reverse transcribed using AffinityScript Multi-Temp reverse transcriptase (Agilent Technologies) according to the manufacturer's protocol. Reactions were performed in 96-well plates using a SYBR Green PCR Master mix (Thermo Fisher Scientific) using a LightCycler® 96 or LightCycler® 480 (Roche Diagnostics). All assays were performed at least in duplicates, and reaction mixtures in 20 μL volumes (96-plate) or 10 μL volumes (384-plate) were processed under the following cycling conditions: initial 10 min denaturation at 95° C., followed by 40 cycles at 95° C. for 10 s, 60° C. for 1 min. Threshold cycle (CT) values for each sample were determined by automated threshold analysis. Expression levels of all mRNAs were normalized to reference gene Actb in BMDMs or to Rpl19 in mouse keratinocytes and tissue samples; to ACTB in human blood monocytes or RPLP0 in human keratinocytes. […] Average ear thickness in each sample was quantified from images obtained at the identical settings using ImageJ. Thickness at 5 equidistant places in each image was quantified and mean of these values was used to represent results in each mouse.

The test system of a further assay is eIF2α. Briefly: eIF2α phosphorylation in BMDMs (western blot). The format is cell-based, mouse. The note with it: DI. On the procedure:
BMDM were prepared from 6- to 12-week-old mice as described 1 and cultured in RMPI-1640 medium supplemented with 10% fetal bovine serum (FBS), 2 mM L-glutamine, and 100 U/mL penicillin-streptomycin and mouse recombinant M-CSF ([…], Peprotech). For experiments, cells were seeded at concentration 10^6 cells/mL in tissue culture plates of various formats. […]
Cells were lysed in RIPA Lysis Buffer System (Santa Cruz) and heat-denatured at 95° C. for 5 min in reducing sample buffer (BioRad). […] Non-specific binding was blocked with 5% skim milk (or 5% BSA when phospho-proteins were analyzed), and membranes were probed with primary antibodies specific to Nrf2 (#12721), HO-1 (#70081), IκBζ (mouse specific, #93726), IκBζ(#9244), ATF3 (#D2Y5W), IRAK1 (#4504; sensitivity of IRAK1 detection diminishes upon IRAK1 K63 ubiquitination), phospho-IKK (Ser176/180, #2697), p62/SQSTM1 (#5114), phospho-eIF2α (Ser51, #9721), eIF2α (#5324) from Cell Signaling; GAPDH (sc-25778), IκBα (sc-1643), ATF3 (sc-188), SDHA (sc-166909) from Santa Cruz; NQO1 (ab28947) from Abeam, followed by incubation with anti-rabbit-HRP (1:10,000; sc-2030) or anti-mouse-HRP (1:10,000; sc-2031) from Santa Cruz and Clarity western ECL substrate (Bio-Rad). […]
For orientation: A western blot detects proteins with antibodies after separation by electrophoresis.

Take `C=C(CC(=O)OC)C(=O)OC` [DI, dimethyl itaconate]: the “intracellular ROS production” value in the assay on BMDMs / BV2 cells is “increased intracellular ROS; also recorded: increase in ROS generation”. For the same molecule, in assay [1] (IMQ 7 days, qPCR), the “IκBζ target gene expression (Defb4, S100a9, S100a7a, Lcn2) in ear skin” value is “markedly reduced”. Besides, the psoriatic skin pathology result in assay [1] (IMQ topically on ears 7 days) is recorded as “significant improvement of the psoriatic pathology; also recorded: no detectable skin changes”. For the same molecule, the “eIF2α phosphorylation in Atf3−/− macrophages” value with eIF2α (Atf3−/− macrophages) is on record as “failed to increase eIF2α phosphorylation”. Further, the eIF2α phosphorylation result in the assay with eIF2α (WT macrophages) is recorded as “marked increase”.
